Assay results: patent publication US20240390340A1 (INCYTE CORPORATION, priority 2023, published 2024)

Experiments:
KRAS G12D = KRAS G12D (Homo sapiens, UniProt P01116, G12D); assay: GDP-GTP exchange assay (bodipy-GDP/GppNHp, SOS1), KRAS G12D; format: biochemical; conditions: bodipy-loaded KRAS G12D 2.5 nM, 4 h pre-incubation; value for the most potent isomer quoted for certain compounds; read-out: G12D (KRAS G12D exchange assay IC50)
KRAS G12V = KRAS G12V (Homo sapiens, UniProt P01116, G12V); assay: GDP-GTP exchange assay (bodipy-GDP/GppNHp, SOS1), KRAS G12V; format: biochemical; conditions: KRAS G12V mutant; value for the most potent isomer quoted for certain compounds; read-out: G12V (KRAS G12V exchange assay IC50)
Chain of KRAS G12V (P01116 1-188 isoform P01116-2 G12V): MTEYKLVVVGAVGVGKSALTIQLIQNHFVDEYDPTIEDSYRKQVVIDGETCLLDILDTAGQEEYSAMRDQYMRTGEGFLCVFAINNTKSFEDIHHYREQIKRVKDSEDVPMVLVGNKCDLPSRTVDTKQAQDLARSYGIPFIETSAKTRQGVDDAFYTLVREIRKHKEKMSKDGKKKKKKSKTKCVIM

Chain of KRAS G12D (P01116 1-188 isoform P01116-2 G12D): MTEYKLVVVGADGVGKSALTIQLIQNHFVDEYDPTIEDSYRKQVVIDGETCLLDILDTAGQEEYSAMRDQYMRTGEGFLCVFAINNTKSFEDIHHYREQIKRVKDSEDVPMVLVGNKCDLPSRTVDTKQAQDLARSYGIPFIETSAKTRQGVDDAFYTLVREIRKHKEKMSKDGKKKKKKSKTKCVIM

| SMILES | IC50 (KRAS G12D) [nM] | IC50 (KRAS G12V) [nM] |
| --- | --- | --- |
| COc1ccc(F)c(CO[C@H]2C[C@H](c3cc4c(C)nc5c(F)c(-c6cccc(Cl)c6Cl)c(CCC#N)cc5c4n3[C@H]3[C@H]4CN[C@@H]3C4)N(C(=O)C3CC3)C2)c1F [Example 186] | ≤ 100 | ≤ 100 |
| Cc1nc2c(F)c(-c3cccc(Cl)c3Cl)c(CCC#N)cc2c2c1cc([C@H]1C[C@H](Oc3cccnc3N3CCOCC3)CN1C(=O)C1CC1)n2[C@H]1[C@H]2CN[C@@H]1C2 [Example 284] | ≤ 100 | ≤ 100 |
| N#CCCc1cc2c(nc(-c3ccc(N4CCOCC4)nc3)c3cc([C@H]4C[C@H](OCc5c(F)cccc5F)CN4C(=O)C4CC4)n([C@H]4[C@H]5CN[C@@H]4C5)c32)c(F)c1-c1cccc(Cl)c1Cl [Example 206] | 100 to 1000 | ≤ 100 |
| Cc1nc2c(F)c(-c3cccc(Cl)c3Cl)c(CCC#N)cc2c2c1cc([C@H]1C[C@H](OCc3ccccn3)CN1C(=O)C1CC1)n2[C@H]1[C@H]2CN[C@@H]1C2 [Example 94] | ≤ 100 | ≤ 100 |
| Cc1nc2c(F)c(-c3cccc(Cl)c3Cl)c(CCC#N)cc2c2c1cc([C@H]1C[C@H](OCc3cnn(C)n3)CN1C(=O)C1CC1)n2[C@H]1[C@H]2CN[C@@H]1C2 [Example 105] | ≤ 100 | ≤ 100 |
| Cc1nc2c(F)c(-c3cccc(Cl)c3Cl)c(CCC#N)cc2c2c1cc([C@H]1C[C@H](n3cc([C@H](C)O)nn3)CN1C(=O)C1CC1)n2[C@H]1C2CNC1C2 (stereo partly shown) [Example 184] | ≤ 100 | ≤ 100 |
| Cc1nc2c(F)c(-c3cccc(Cl)c3Cl)c(CCC#N)cc2c2c1cc([C@H]1C[C@H](n3cc(Cc4ccccc4)nn3)CN1C(=O)C1CC1)n2[C@H]1[C@H]2CN[C@@H]1C2 [Example 145] | ≤ 100 | ≤ 100 |
| Cc1nc2c(F)c(-c3cccc(Cl)c3Cl)c(CCC#N)cc2c2c1cc([C@H]1C[C@H](OCc3cnnn3C)CN1C(=O)C1CC1)n2[C@H]1[C@H]2CN[C@@H]1C2 [Example 106] | ≤ 100 | ≤ 100 |
| Cc1nc2c(F)c(-c3cccc(Cl)c3Cl)c(CCC#N)cc2c2c1cc([C@H]1C[C@H](Oc3cnn4ccccc34)CN1C(=O)C1CC1)n2[C@H]1[C@H]2CN[C@@H]1C2 [Example 194] | ≤ 100 | ≤ 100 |
| Cc1ncccc1O[C@H]1C[C@H](c2cc3c(C)nc4c(F)c(-c5cccc(Cl)c5Cl)c(CCC#N)cc4c3n2[C@H]2[C@H]3CN[C@@H]2C3)N(C(=O)C2CC2)C1 [Example 129] | ≤ 100 | ≤ 100 |
| COC(=O)N1C[C@@H](Oc2ccccn2)C[C@@H]1c1cc2c(C)nc3c(F)c(-c4cccc(Cl)c4Cl)c(CCC#N)cc3c2n1[C@H]1[C@H]2CN[C@@H]1C2 [Example 162] | ≤ 100 | ≤ 100 |
| Cc1nc2c(F)c(-c3cccc(Cl)c3Cl)c(CCC#N)cc2c2c1cc([C@H]1C[C@H](OCc3cccc(C#N)c3F)CN1C(=O)C1CC1)n2[C@H]1[C@H]2CN[C@@H]1C2 [Example 151] | ≤ 100 | ≤ 100 |
| Cc1nc2c(F)c(-c3cccc(Cl)c3Cl)c(CCC#N)cc2c2c1cc([C@H]1C[C@H](OCc3cccc(C(=O)N(C)C)c3)CN1C(=O)C1CC1)n2[C@H]1[C@H]2CN[C@@H]1C2 [Example 187] | ≤ 100 | ≤ 100 |
| Cc1nc2c(F)c(-c3cccc(Cl)c3Cl)c(CCC#N)cc2c2c1cc([C@H]1C[C@H](c3ccccc3)CN1C(=O)C1CC1)n2[C@H]1[C@H]2CN[C@@H]1C2 [Example 109] | ≤ 100 | ≤ 100 |
| Cc1nc2c(F)c(-c3cccc(Cl)c3Cl)c(CCC#N)cc2c2c1cc([C@H]1C[C@H](Oc3ccnn3C)CN1C(=O)C1CC1)n2[C@H]1[C@H]2CN[C@@H]1C2 [Example 175] | ≤ 100 | ≤ 100 |
| Cc1nc2c(F)c(-c3cccc(Cl)c3Cl)c(CCC#N)cc2c2c1cc([C@H]1C[C@H](OC(C)c3ccccc3)CN1C(=O)C1CC1)n2[C@H]1[C@H]2CN[C@@H]1C2 (stereo partly shown) [Example 93] | ≤ 100 | ≤ 100 |
| Cc1nc2c(F)c(-c3cccc(Cl)c3Cl)c(CCC#N)cc2c2c1cc([C@H]1C[C@H](Oc3nccc4ccccc34)CN1C(=O)C1CC1)n2[C@H]1[C@H]2CN[C@@H]1C2 [Example 131] | ≤ 100 | ≤ 100 |
| Cc1cc(-c2nc3c(F)c(-c4cccc(Cl)c4Cl)c(CCC#N)cc3c3c2cc([C@H]2C[C@H](OCc4c(F)cccc4F)CN2C(=O)C2CC2)n3[C@H]2[C@H]3CN[C@@H]2C3)cc(C)n1 [Example 208] | 5000 to 10000 | 5000 to 10000 |
| Cc1csnc1C(C)O[C@H]1C[C@H](c2cc3c(C)nc4c(F)c(-c5cccc(Cl)c5Cl)c(CCC#N)cc4c3n2[C@H]2[C@H]3CN[C@@H]2C3)N(C(=O)C2CC2)[C@@H]1C (stereo partly shown) [Example 254] | ≤ 100 | ≤ 100 |
| Cc1nc2c(F)c(-c3cccc(Cl)c3Cl)c(CCC#N)cc2c2c1cc([C@H]1C[C@H](OCc3cccc(C(=O)O)c3)CN1C(=O)C1CC1)n2[C@H]1[C@H]2CN[C@@H]1C2 [Example 165] | ≤ 100 | ≤ 100 |
| Cc1nc2c(F)c(-c3cccc(Cl)c3Cl)c(CCC#N)cc2c2c1cc([C@H]1C[C@H](OCc3c(Cl)cccc3Cl)CN1C(=O)C1CC1)n2[C@H]1[C@H]2CN[C@@H]1C2 [Example 116] | ≤ 100 | ≤ 100 |
| Cc1nc2c(F)c(-c3cccc(Cl)c3Cl)c(CCC#N)cc2c2c1cc([C@H]1C[C@H](OCc3ccc(C#N)cc3)CN1C(=O)C1CC1)n2[C@H]1[C@H]2CN[C@@H]1C2 [Example 152] | ≤ 100 | ≤ 100 |
| Cc1nc2c(F)c(-c3cccc(Cl)c3Cl)c(CCC#N)cc2c2c1cc([C@H]1C[C@H](Oc3cnn(C)c3)CN1C(=O)C1CC1)n2[C@H]1[C@H]2CN[C@@H]1C2 [Example 135] | ≤ 100 | ≤ 100 |
| Cc1nc2c(F)c(-c3cccc(Cl)c3Cl)c(CCC#N)cc2c2c1cc([C@H]1C[C@H](Oc3cccc(C(C)C)c3)CN1C(=O)C1CC1)n2[C@H]1[C@H]2CN[C@@H]1C2 [Example 168] | 100 to 1000 | ≤ 100 |
| Cc1nc2c(F)c(-c3cccc(Cl)c3Cl)c(CCC#N)cc2c2c1cc([C@H]1C[C@H](OCc3ccc(C(F)(F)F)nc3)CN1C(=O)C1CC1)n2[C@H]1[C@H]2CN[C@@H]1C2 [Example 260] | ≤ 100 | ≤ 100 |

Next, values leading:

| IC50 (KRAS G12D) [nM] | IC50 (KRAS G12V) [nM] | SMILES |
| --- | --- | --- |
| ≤ 100 | ≤ 100 | Cc1nc(O[C@H]2C[C@H](c3cc4c(C)nc5c(F)c(-c6cccc(Cl)c6Cl)c(CCC#N)cc5c4n3[C@H]3[C@H]4CN[C@@H]3C4)N(C(=O)C3CC3)C2)ccc1C#N [Example 306] |
| ≤ 100 | ≤ 100 | COC1CN(c2cc(O[C@H]3C[C@H](c4cc5c(C)nc6c(F)c(-c7cccc(Cl)c7Cl)c(CCC#N)cc6c5n4[C@H]4[C@H]5CN[C@@H]4C5)N(C(=O)C4CC4)C3)ccn2)C1 [Example 366] |
| ≤ 100 | ≤ 100 | Cc1nc2c(F)c(-c3cccc(Cl)c3Cl)c(CCC#N)cc2c2c1cc([C@H]1C[C@H](Oc3cc(Cl)ccn3)CN1C(=O)C1CC1)n2[C@H]1[C@H]2CN[C@@H]1C2 [Example 297] |
| ≤ 100 | ≤ 100 | Cc1ccn([C@H]2C[C@H](c3cc4c(C)nc5c(F)c(-c6cccc(Cl)c6Cl)c(CCC#N)cc5c4n3[C@H]3[C@H]4CN[C@@H]3C4)N(C(=O)C3CC3)C2)n1 [Example 315] |
| ≤ 100 | ≤ 100 | Cc1nc2c(F)c(-c3cccc(Cl)c3Cl)c(CCC#N)cc2c2c1cc([C@H]1C[C@H](Oc3nccs3)CN1C(=O)C1CC1)n2[C@H]1[C@H]2CN[C@@H]1C2 [Example 341] |
| ≤ 100 | ≤ 100 | Cc1nc2c(F)c(-c3cccc(Cl)c3Cl)c(CCC#N)cc2c2c1cc([C@H]1C[C@H](n3cccn3)CN1C(=O)C1CC1)n2[C@H]1[C@H]2CN[C@@H]1C2 [Example 314] |
| ≤ 100 | ≤ 100 | CCOC(=O)c1cnn([C@H]2C[C@H](c3cc4c(C)nc5c(F)c(-c6cccc(Cl)c6Cl)c(CCC#N)cc5c4n3[C@H]3[C@H]4CN[C@@H]3C4)N(C(=O)C3CC3)C2)n1 [Example 393] |
| ≤ 100 | ≤ 100 | Cc1nc2c(F)c(-c3cccc(Cl)c3Cl)c(CCC#N)cc2c2c1cc([C@H]1C[C@H](n3nnc(CO)c3C)CN1C(=O)C1CC1)n2[C@H]1[C@H]2CN[C@@H]1C2 [Example 326] |
| ≤ 100 | ≤ 100 | Cc1nc2c(F)c(-c3cccc(Cl)c3Cl)c(CCC#N)cc2c2c1cc([C@H]1C[C@H](n3cc(C4CC4)cn3)CN1C(=O)C1CC1)n2[C@H]1[C@H]2CN[C@@H]1C2 [Example 429] |
| ≤ 100 | ≤ 100 | Cc1nc2c(F)c(-c3cccc(Cl)c3Cl)c(CCC#N)cc2c2c1cc([C@H]1C[C@H](n3ccc(N)n3)CN1C(=O)C1CC1)n2[C@H]1[C@H]2CN[C@@H]1C2 [Example 319] |
| ≤ 100 | ≤ 100 | Cc1nc2c(F)c(-c3cccc(Cl)c3Cl)c(CCC#N)cc2c2c1cc([C@H]1C[C@H](n3cc4c(n3)CCC4)CN1C(=O)C1CC1)n2[C@H]1[C@H]2CN[C@@H]1C2 [Example 356] |
| ≤ 100 | ≤ 100 | Cc1nc2c(F)c(-c3cccc(Cl)c3Cl)c(CCC#N)cc2c2c1cc([C@H]1C[C@H](O[C@H]3CCOC3)CN1C(=O)C1CC1)n2[C@H]1[C@H]2CN[C@@H]1C2 [Example 365] |
| ≤ 100 | ≤ 100 | Cc1nc2c(F)c(-c3cccc(Cl)c3Cl)c(CCC#N)cc2c2c1cc([C@H]1C[C@H](OC3CCOC3)CN1C(=O)C1CC1)n2[C@H]1[C@H]2CN[C@@H]1C2 (stereo partly shown) [Example 364] |
| ≤ 100 | ≤ 100 | Cc1ccnc(O[C@H]2C[C@H](c3cc4c(C)nc5c(F)c(-c6cccc(Cl)c6Cl)c(CCC#N)cc5c4n3[C@H]3[C@H]4CN[C@@H]3C4)N(C(=O)C3CC3)C2)c1 [Example 422] |
| ≤ 100 | ≤ 100 | Cc1nc2c(F)c(-c3cccc(Cl)c3Cl)c(CCC#N)cc2c2c1cc([C@H]1C[C@H](OC3CC3C)CN1C(=O)C1CC1)n2[C@H]1[C@H]2CN[C@@H]1C2 (stereo partly shown) [Example 379] |
| ≤ 100 | ≤ 100 | Cc1nc2c(F)c(-c3cccc(Cl)c3Cl)c(CCC#N)cc2c2c1cc([C@H]1C[C@H](n3cnc(-c4ccccc4)n3)CN1C(=O)C1CC1)n2[C@H]1[C@H]2CN[C@@H]1C2 [Example 349] |
